Measured values as given in ChEMBL document CHEMBL1649270, “ST-246 inhibits in vivo poxvirus dissemination, virus shedding, and systemic disease manifestation” (2009).
Activity calls are given as the source filed them. The rule behind the calls is not given here.

Columns and labels:
[1] = tested on: Vaccinia virus WR; assay: Antiviral activity against Vaccinia virus WR ATCC VR-1354 infected through percutaneous route in BALB/c mouse assessed as reduction of viral load in liver at 100 mg/kg, po qd measured after 3 days postinfection by RT-PCR analysis relative to control; assay type: functional
[2] = tested on: Vaccinia virus WR; assay: Antiviral activity against Vaccinia virus WR ATCC VR-1354 infected through percutaneous route in BALB/c mouse assessed as protection against virus-induced death at 100 mg/kg, po qd administered 3 days after postinfection measured on day 6; assay type: functional
[3] = tested on: Vaccinia virus WR; assay: Antiviral activity against Vaccinia virus WR ATCC VR-1354 infected through percutaneous route in BALB/c mouse assessed as protection against hypothermia at 100 mg/kg, po qd for 5 to 14 days; assay type: functional, organism-based; design: dose 100 mg/kg
[4] = tested on: Vaccinia virus WR; assay: Antiviral activity against Vaccinia virus WR ATCC VR-1354 infected through percutaneous route in BALB/c mouse assessed as reduction of viral load in blood at 100 mg/kg, po qd measured after 3 days postinfection by RT-PCR analysis relative to control; assay type: functional
[5] = tested on: Vaccinia virus WR; assay: Antiviral activity against Vaccinia virus WR ATCC VR-1354 in african green monkey BSC-40 cells infected with 7 day postinfection BAL fluid from 100 mg/kg, po qd compound treated BALB/c mouse infected through percutaneous route assessed as reduction of viral attachment to cells by plaque titration assay; assay type: functional
[6] = tested on: Vaccinia virus WR; assay: Antiviral activity against Vaccinia virus WR ATCC VR-1354 infected through percutaneous route in BALB/c mouse assessed as inhibition of virus dissemination in brain at 100 mg/kg, po qd for 1 day by RT-PCR analysis; assay type: functional, organism-based; design: dose 100 mg/kg
[7] = tested on: Vaccinia virus WR; assay: Antiviral activity against Vaccinia virus WR ATCC VR-1354 infected through dermal scarification route in BALB/c mouse assessed as reduction of viral load in brain at 100 mg/kg, po qd measured after 14 days postinfection by RT-PCR analysis relative to control; assay type: functional, organism-based; design: dose 100 mg/kg
[8] = tested on: Vaccinia virus WR; assay: Antiviral activity against Vaccinia virus WR ATCC VR-1354 infected through percutaneous route in BALB/c mouse assessed as reduction of viral load in spleen at 100 mg/kg, po qd measured after 7 days postinfection by RT-PCR analysis relative to control; assay type: functional, organism-based; design: dose 100 mg/kg

Question: `O=C(NN1C(=O)[C@@H]2[C@@H]3C=C[C@@H]([C@H]4C[C@@H]34)[C@@H]2C1=O)c1ccc(C(F)(F)F)cc1` [TECOVIRIMAT] was tested. Which “fold change (FC)” value [1] did it give?
Answer: 45

Question: What about the Activity [2] of the same compound?
Answer: 100%

Question: What about the Activity [3] of the same compound?
Answer: Active

Question: What about the “fold change (FC)” value [4] of the same compound?
Answer: 8

Question: What about the “fold change (FC)” value [5] of the same compound?
Answer: 528

Question: And the Activity [6]?
Answer: inactive

Question: And the Activity [7]?
Answer: Active

Question: And the Activity [8]?
Answer: Active
